Data reported in US8969362B2 (priority 2004, dated 2015).

System: rat spleen cells
Assay: cells
Assay type: cell-based
Conditions: 24 h, read-out: Minimum effective concentration (interferon inducing activity)

SMILES	minimal effective concentration
CCCCOc1nc(N)c2[nH]c(=O)n(CCCCNS(=O)(=O)c3cccc(C(=O)O)c3)c2n1 [Comparison Example 8, 2-butoxy-8-oxo-9-[4-(3-hydroxycarbonylbenzenesulfonamide)butyl]adenine, reference compound]	0.1 µM
CCCCOc1nc(N)c2[nH]c(=O)n(CCOc3ccccc3CC(=O)O)c2n1 [Comparison Example 4, 2-butoxy-8-oxo-9-[2-(2-hydroxycarbonylmethylphenoxy)ethyl]adenine, reference compound]	0.1 µM
CCCCOc1nc(N)c2[nH]c(=O)n(CCOc3ccccc3C(=O)O)c2n1 [Comparison Example 3, 2-butoxy-8-oxo-9-[2-(2-hydroxycarbonylphenoxy)ethyl]adenine, reference compound]	0.1 µM

System: not given
Assay: not given
Conditions: not given

SMILES	melting point
CCCCOc1nc(N)c2[nH]c(=O)n(CCSc3cccc(CC(=O)O)c3)c2n1 [Example 2-40, (3-{[2-(6-Amino-2-butoxy-8-oxo-7,8-dihydro-9H-purin-9-yl)ethyl]thio}phenyl)acetic acid]	205 to 207 °C
CCCCOc1nc(N)c2[nH]c(=O)n(CCCCN(CC(C)(C)CN(C)C)S(=O)(=O)c3cccc(CC(=O)O)c3)c2n1 [Example 2-20, [3-({[4-(6-Amino-2-butoxy-8-oxo-7,8-dihydro-9H-purin-9-yl)butyl][3-(dimethylamino)-2,2-dimethylpropyl]amino}sulfonyl)phenyl]acetic acid]	175 to 176 °C
CCCCOc1nc(N)c2[nH]c(=O)n(CCCCN(C)S(=O)(=O)c3cccc(CC(=O)O)c3)c2n1 [Example 2-18, (3-{[[4-(6-Amino-2-butoxy-8-oxo-7,8-dihydro-9H-purin-9-yl)butyl](methyl)amino]sulfonyl}phenyl)acetic acid]	171 to 172 °C
CCCCOc1nc(N)c2[nH]c(=O)n(CCCCN(CCCN3CCCC3=O)Cc3cccc(CC(=O)OC)c3)c2n1 [Example 2-33, Methyl [3-({[4-(6-amino-2-butoxy-8-oxo-7,8-dihydro-9H-purin-9-yl)butyl][3-(2-oxopyrrolidin-1-yl)propyl]amino}methyl)phenyl]acetate]	115 to 116 °C
CCCCOc1nc(N)c2[nH]c(=O)n(CCCNCc3cccc(C(=O)OC)c3)c2n1 [Example 2-3, Methyl 3-({[3-(6-amino-2-butoxy-8-oxo-7,8-dihydro-9H-purin-9-yl)propyl]amino}methyl)benzoate]	214 to 218 °C
CCCCOc1nc(N)c2[nH]c(=O)n(CCCNc3cccc(CC(=O)O)c3)c2n1 [Example 2-43, (3-{[3-(6-Amino-2-butoxy-8-oxo-7,8-dihydro-9H-purin-9-yl)propyl]amino}phenyl)acetic acid]	247 °C
CCCCOc1nc(N)c2[nH]c(=O)n(CCSc3cccc(CC(=O)OC)c3)c2n1 [Example 2-39, Methyl (3-{[2-(6-amino-2-butoxy-8-oxo-7,8-dihydro-9H-purin-9-yl)ethyl]thio}phenyl)acetate]	232 to 233 °C
CCCCOc1nc(N)c2[nH]c(=O)n(CCCNS(=O)(=O)c3cccc(CC(=O)OC)c3)c2n1 [Example 2-21, Methyl [3-({[3-(6-amino-2-butoxy-8-oxo-7,8-dihydro-9H-purin-9-yl)propyl]amino}sulfonyl)phenyl]acetate]	218 to 219 °C
CCCCOc1nc(N)c2[nH]c(=O)n(CCCCNS(=O)(=O)c3ccc(CCC(=O)O)cc3)c2n1 [Example 2-12, 3-[4-({[4-(6-Amino-2-butoxy-8-oxo-7,8-dihydro-9H-purin-9-yl)butyl]amino}sulfonyl)phenyl]propionic acid]	210 to 211 °C
CCCCOc1nc(N)c2[nH]c(=O)n(CCNc3cccc(CC(=O)OC)c3)c2n1 [Example 2-41, Methyl (3-{[2-(6-amino-2-butoxy-8-oxo-7,8-dihydro-9H-purin-9-yl)ethyl]amino}phenyl)acetate]	222 to 223 °C
CCCCOc1nc(N)c2[nH]c(=O)n(CCCNc3cccc(CC(=O)OC)c3)c2n1 [Example 2-42, Methyl (3-{[3-(6-amino-2-butoxy-8-oxo-7,8-dihydro-9H-purin-9-yl)propyl]amino}phenyl)acetate]	208 to 209 °C
CCCCOc1nc(N)c2[nH]c(=O)n(CCCCN(CCOC)S(=O)(=O)c3cccc(CC(=O)O)c3)c2n1 [Example 2-16, (3-{[[4-(6-Amino-2-butoxy-8-oxo-7,8-dihydro-9H-purin-9-yl)butyl](2-methoxyethyl)amino]sulfonyl}phenyl)acetic acid]	171 to 172 °C
CCCCOc1nc(N)c2[nH]c(=O)n(CCCCN(CCN3CCOCC3)Cc3cccc(CC(=O)OC)c3)c2n1 [Example 2-35, Methyl (3-{[[4-(6-amino-2-butoxy-8-oxo-7,8-dihydro-9H-purin-9-yl)butyl](2-morpholin-4-ylethyl)amino]methyl}phenyl)acetate]	189 to 190 °C
CCCCOc1nc(N)c2[nH]c(=O)n(CCCCN(CCN3CCCC3)S(=O)(=O)c3cccc(CC(=O)O)c3)c2n1 [Example 2-14, (3-{[[4-(6-Amino-2-butoxy-8-oxo-7,8-dihydro-9H-purin-9-yl)butyl](2-pyrrolidin-1-ylethyl)amino]sulfonyl}phenyl)acetic acid]	192 to 193 °C
CCCCOc1nc(N)c2[nH]c(=O)n(CCCCNS(=O)(=O)c3ccc(CCC(=O)OC)cc3)c2n1 [Example 2-11, Methyl 3-[4-({[4-(6-amino-2-butoxy-8-oxo-7,8-dihydro-9H-purin-9-yl)butyl]amino}sulfonyl)phenyl]propanoate]	150 to 152 °C
CCCCOc1nc(N)c2[nH]c(=O)n(CCN(C)Cc3cccc(CC(=O)O)c3)c2n1 [Example 2-50, (3-{[[2-(6-Amino-2-butoxy-8-oxo-7,8-dihydro-9H-purin-9-yl)ethyl](methyl)amino]methyl}phenyl)acetic acid]	164 to 166 °C
CCCCOc1nc(N)c2[nH]c(=O)n(CCS(=O)(=O)c3cccc(CC(=O)OC)c3)c2n1 [Example 2-48, Methyl (3-{[2-(6-amino-2-butoxy-8-oxo-7,8-dihydro-9H-purin-9-yl)ethyl]sulfonyl}phenyl)acetate]	246 to 247 °C
CCCCOc1nc(N)c2[nH]c(=O)n(CCCCN(CC(C)(C)O)S(=O)(=O)c3cccc(CC(=O)OC)c3)c2n1 [Example 2-22, Methyl (3-{[[4-(6-amino-2-butoxy-8-oxo-7,8-dihydro-9H-purin-9-yl)butyl](2-hydroxy-2-methylpropyl)amino]sulfonyl}phenyl)acetate]	192 to 193 °C
CCCCOc1nc(N)c2[nH]c(=O)n(CCCCN(Cc3cccc(CC(=O)O)c3)CC(C)(C)CN(C)C)c2n1 [Example 2-32, [3-({[4-(6-Amino-2-butoxy-8-oxo-7,8-dihydro-9H-purin-9-yl)butyl][3-(dimethylamino)-2,2-dimethylpropyl]amino}methyl)phenyl]acetic acid]	189 to 190 °C
CCCCOc1nc(N)c2[nH]c(=O)n(CCCCN(CCOC)S(=O)(=O)c3cccc(CC(=O)OC)c3)c2n1 [Example 2-15, Methyl (3-{[[4-(6-amino-2-butoxy-8-oxo-7,8-dihydro-9H-purin-9-yl)butyl](2-methoxyethyl)amino]sulfonyl}phenyl)acetate]	182 to 183 °C
